In US8952034B2, “Fused heterocyclic compounds as ion channel modulators” (Gilead Sciences, Inc., priority 2009, dated 2015):

These molecules were tested against wild-type human cardiac sodium channel, hNav1.5 (Homo sapiens, UniProt Q14524) (assay: Late INa screening assay (automated whole cell patch clamp, PatchXpress)). Details: compound at 1 μM; HEK293 cells expressing hNav1.5; late INa generated with 10 μM Tefluthrin (or 50 nM ATX II); read-out: LateINa_1 uM (percent block of late INa).
Sequence of wild-type human cardiac sodium channel, hNav1.5 (Q14524 whole entry): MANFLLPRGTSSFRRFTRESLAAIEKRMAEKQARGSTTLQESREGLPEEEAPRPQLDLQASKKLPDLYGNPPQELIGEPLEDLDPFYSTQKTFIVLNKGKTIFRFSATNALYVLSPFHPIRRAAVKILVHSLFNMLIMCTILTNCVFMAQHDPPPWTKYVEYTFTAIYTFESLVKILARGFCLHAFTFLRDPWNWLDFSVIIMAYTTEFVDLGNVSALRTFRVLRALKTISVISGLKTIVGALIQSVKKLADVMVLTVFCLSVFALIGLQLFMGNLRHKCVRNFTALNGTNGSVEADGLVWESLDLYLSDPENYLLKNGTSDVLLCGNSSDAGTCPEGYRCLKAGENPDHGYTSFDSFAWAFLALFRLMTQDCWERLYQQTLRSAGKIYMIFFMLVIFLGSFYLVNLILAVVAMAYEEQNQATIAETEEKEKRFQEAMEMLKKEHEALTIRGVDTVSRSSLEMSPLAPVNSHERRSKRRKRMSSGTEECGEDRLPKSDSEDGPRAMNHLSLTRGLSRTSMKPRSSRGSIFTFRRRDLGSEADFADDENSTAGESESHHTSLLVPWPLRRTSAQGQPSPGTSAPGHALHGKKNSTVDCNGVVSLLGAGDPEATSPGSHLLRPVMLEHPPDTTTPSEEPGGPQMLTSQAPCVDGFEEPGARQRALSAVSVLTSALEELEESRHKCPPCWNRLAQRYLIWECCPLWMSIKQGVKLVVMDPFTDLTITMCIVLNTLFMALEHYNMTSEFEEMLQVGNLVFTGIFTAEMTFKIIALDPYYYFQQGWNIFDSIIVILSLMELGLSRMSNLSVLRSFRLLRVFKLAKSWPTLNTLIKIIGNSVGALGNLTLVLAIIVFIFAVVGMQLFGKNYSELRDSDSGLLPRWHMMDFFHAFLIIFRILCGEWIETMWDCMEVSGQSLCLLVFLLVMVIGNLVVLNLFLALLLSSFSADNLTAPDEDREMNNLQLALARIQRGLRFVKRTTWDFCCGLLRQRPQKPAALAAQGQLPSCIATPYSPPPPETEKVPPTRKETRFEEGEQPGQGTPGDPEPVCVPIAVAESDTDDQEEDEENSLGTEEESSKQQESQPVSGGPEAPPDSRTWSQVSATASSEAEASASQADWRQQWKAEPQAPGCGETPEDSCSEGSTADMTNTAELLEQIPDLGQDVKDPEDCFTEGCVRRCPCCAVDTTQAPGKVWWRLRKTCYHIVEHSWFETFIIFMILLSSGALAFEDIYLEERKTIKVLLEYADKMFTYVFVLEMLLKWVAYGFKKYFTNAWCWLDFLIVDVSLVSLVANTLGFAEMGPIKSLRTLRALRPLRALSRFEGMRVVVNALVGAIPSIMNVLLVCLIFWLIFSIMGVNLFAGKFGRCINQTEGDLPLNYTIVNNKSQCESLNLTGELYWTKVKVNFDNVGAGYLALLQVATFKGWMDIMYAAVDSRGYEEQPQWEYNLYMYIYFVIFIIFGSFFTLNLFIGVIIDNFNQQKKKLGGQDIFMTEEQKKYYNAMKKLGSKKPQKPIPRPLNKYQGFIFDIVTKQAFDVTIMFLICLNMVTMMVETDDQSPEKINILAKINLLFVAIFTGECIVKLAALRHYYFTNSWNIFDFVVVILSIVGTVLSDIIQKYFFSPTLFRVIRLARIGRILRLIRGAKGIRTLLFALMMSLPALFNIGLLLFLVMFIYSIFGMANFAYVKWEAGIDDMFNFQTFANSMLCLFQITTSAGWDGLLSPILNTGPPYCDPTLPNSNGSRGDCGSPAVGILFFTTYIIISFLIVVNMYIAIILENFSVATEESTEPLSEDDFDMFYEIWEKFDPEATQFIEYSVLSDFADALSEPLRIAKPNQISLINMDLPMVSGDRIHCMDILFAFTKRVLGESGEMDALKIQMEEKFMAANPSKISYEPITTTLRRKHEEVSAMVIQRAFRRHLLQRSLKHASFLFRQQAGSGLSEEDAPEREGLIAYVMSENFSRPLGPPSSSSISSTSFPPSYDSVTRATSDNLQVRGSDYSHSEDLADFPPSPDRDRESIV
Assay type: cell-based
Method in brief: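 Late sodium current through wild-type human hNav1.5 stably expressed in HEK293 cells (no beta subunits) was recorded by automated whole-cell patch clamp on a PatchXpress 7000A at 24-27° C. Late INa was induced with 10 μM Tefluthrin or 50 nM ATX II. Cells were stepped from −120 mV to −20 mV for 250 ms at 0.1 Hz, and percent block was normalized to current in Na-free extracellular solution.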
With `FC(F)(F)COc1ccc(-c2ccc3nnnn3c2)cn1` [BHN-219, 6-[6-(2,2,2-trifluoroethoxy)pyridin-3-yl]tetrazolo[1,5-a]pyridine] the inhibition at 1 µM was 36.9%.
Work on `FC(F)(F)Oc1ccc(-c2ccc3nnc(C(F)(F)COCc4cccnc4)n3c2)cc1` [BHN-139, 3-[1,1-difluoro-2-(pyridin-3-ylmethoxy)ethyl]-6-[4-(trifluoromethoxy)phenyl][1,2,4]triazolo[4,3-a]pyridine] yielded an inhibition at 1 µM of 15.4%.
For `FC(F)(F)Oc1ccc(-c2ccc3nnc(COCc4ccccc4C(F)(F)F)n3c2)cc1` [BHN-239, 6-[4-(trifluoromethoxy)phenyl]-3-({[2-(trifluoromethyl)benzyl]oxy}methyl)[1,2,4]triazolo[4,3-a]pyridine], the inhibition at 1 µM was 65.1%.
Work on `FC(F)(F)COCc1nnc2ccc(-c3ccc(OC(F)(F)F)cc3)cn12` [BHN-129, 3-[(2,2,2-trifluoroethoxy)methyl]-6-[4-(trifluoromethoxy)phenyl][1,2,4]triazolo[4,3-a]pyridine] yielded an inhibition at 1 µM of 48.4%.
`O=C(NCC(F)(F)c1nnc2ccc(-c3ccc(OC(F)(F)F)cc3)cn12)Nc1ccccc1` [BHN-263, 1-(2,2-difluoro-2-{6-[4-(trifluoromethoxy)phenyl][1,2,4]triazolo[4,3-a]pyridin-3-yl}ethyl)-3-phenylurea] was tested, and the inhibition at 1 µM was 22.6%.
Work on `Fc1ccc(COCc2nnc3ccc(-c4ccc(OC(F)(F)F)cc4)cn23)cc1` [BHN-227, 3-{[(4-fluorobenzyl)oxy]methyl}-6-[4-(trifluoromethoxy)phenyl][1,2,4]triazolo[4,3-a]pyridine] yielded an inhibition at 1 µM of 79.8%.
Molecule `FC(F)(F)Oc1ccc(-c2ccc3nnc(C(F)(F)OCC4CC4)n3c2)cc1` [BHN-214, 3-[(cyclopropylmethoxy)(difluoro)methyl]-6-[4-(trifluoromethoxy)phenyl][1,2,4]triazolo[4,3-a]pyridine] has an inhibition at 1 µM of 80.8%.
`FC(F)(F)Oc1ccc(-c2ccc3nnc(C(F)(F)OCc4cccnn4)n3c2)cc1` [BHN-216, 3-[difluoro(pyridazin-3-ylmethoxy)methyl]-6-[4-(trifluoromethoxy)phenyl][1,2,4]triazolo[4,3-a]pyridine] was tested, and the inhibition at 1 µM was 26.1%.
`FC(F)(F)Oc1ccc(-c2ccc3nnc(C(F)(F)OCc4ccccc4-c4cccnc4)n3c2)cc1` [BHN-327, 3-(difluoro{[2-(pyridin-3-yl)benzyl]oxy}methyl)-6-[4-(trifluoromethoxy)phenyl][1,2,4]triazolo[4,3-a]pyridine] gave an inhibition at 1 µM of 54.2%.
Molecule `FC(F)(F)Oc1ccc(-c2ccc3nnnn3c2)cc1` [BHN-98, 6-[4-(trifluoromethoxy)phenyl]tetrazolo[1,5-a]pyridine] has an inhibition at 1 µM of 54.1%.
`CC(OC(F)(F)c1cccnc1)c1nnc2ccc(-c3ccc(OC(F)(F)F)cc3)cn12` (stereo not shown) [BHN-249, 3-{1-[difluoro(pyridin-3-yl)methoxy]ethyl}-6-[4-(trifluoromethoxy)phenyl][1,2,4]triazolo[4,3-a]pyridine] gave an inhibition at 1 µM of 22.7%.
`COCC(F)(F)c1nnc2ccc(-c3cc(F)c(Oc4ccccc4)c(F)c3)cn12` [BHN-233, 3-(1,1-difluoro-2-methoxyethyl)-6-(3,5-difluoro-4-phenoxyphenyl)[1,2,4]triazolo[4,3-a]pyridine] showed an inhibition at 1 µM of 31.4%.
`FC(F)(F)Oc1ccc(-c2ccc3nnc(C(F)(F)OCc4cccnc4)n3c2)cc1` [BHN-204, 3-[difluoro(pyridin-3-ylmethoxy)methyl]-6-[4-(trifluoromethoxy)phenyl][1,2,4]triazolo[4,3-a]pyridine] gave an inhibition at 1 µM of 43.9%.
`FC(F)(F)Oc1ccc(-c2ccc3nnc(-c4ccc(OC(F)(F)F)cc4)n3c2)cc1` [BHN-55, 3,6-bis[4-(trifluoromethoxy)phenyl][1,2,4]triazolo[4,3-a]pyridine] showed an inhibition at 1 µM of 89.1%.
With `COc1nnc2ccc(-c3ccc(OC(F)(F)F)cc3)cn12` [BHN-185, 3-methoxy-6-[4-(trifluoromethoxy)phenyl][1,2,4]triazolo[4,3-a]pyridine] the inhibition at 1 µM was 29.1%.
`FC(F)(F)Oc1ccc(-c2ccc3nnc(C(F)(F)F)n3c2)c(-c2cccnc2)c1` [BHN-132, 6-[2-(pyridin-3-yl)-4-(trifluoromethoxy)phenyl]-3-(trifluoromethyl)[1,2,4]triazolo[4,3-a]pyridine] showed an inhibition at 1 µM of 29.4%.
In the case of `FC(F)(F)Oc1ccc(-c2ccc3nnc(C(F)(F)CCl)n3c2)cc1` [BHN-160, 3-(2-chloro-1,1-difluoroethyl)-6-[4-(trifluoromethoxy)phenyl][1,2,4]triazolo[4,3-a]pyridine], the inhibition at 1 µM is reported as 62%.
Molecule `CCc1nnc2ccc(-c3ccc(Oc4ccccc4)cc3)nn12` [BHN-38, 3-ethyl-6-(4-phenoxyphenyl)[1,2,4]triazolo[4,3-b]pyridazine] has an inhibition at 1 µM of 54.5%.
`CC(OC(F)(F)c1nnc2ccc(-c3ccc(OC(F)(F)F)cc3)cn12)c1ccc(Cl)cc1` (stereo not shown) [BHN-231, 3-{[1-(4-chlorophenyl)ethoxy](difluoro)methyl}-6-[4-(trifluoromethoxy)phenyl][1,2,4]triazolo[4,3-a]pyridine] was tested, and the inhibition at 1 µM was 62.9%.
`Fc1ccc(COCC(F)(F)c2nnc3ccc(-c4ccc(OC(F)(F)F)cc4)cn23)cc1F` [BHN-190, 3-{2-[(3,4-difluorobenzyl)oxy]-1,1-difluoroethyl}-6-[4-(trifluoromethoxy)phenyl][1,2,4]triazolo[4,3-a]pyridine] gave an inhibition at 1 µM of 24.3%.
Work on `FC(F)(F)COc1nnc2ccc(-c3ccc(OC(F)(F)F)cc3)cn12` [BHN-186, 3-(2,2,2-trifluoroethoxy)-6-[4-(trifluoromethoxy)phenyl][1,2,4]triazolo[4,3-a]pyridine] yielded an inhibition at 1 µM of 45.2%.
Work on `CC(OC(F)(F)c1nnc2ccc(-c3ccc(OC(F)(F)F)cc3)cn12)c1cnc2ccccc2c1` (stereo not shown) [BHN-282, 3-[1-(difluoro{6-[4-(trifluoromethoxy)phenyl][1,2,4]triazolo[4,3-a]pyridin-3-yl}methoxy)ethyl]quinoline] yielded an inhibition at 1 µM of 62.7%.
For `Cc1nc(COC(F)(F)c2nnc3ccc(-c4ccc(OC(F)(F)F)cc4)cn23)c(C)o1` [BHN-228, 3-{[(2,5-dimethyl-1,3-oxazol-4-yl)methoxy](difluoro)methyl}-6-[4-(trifluoromethoxy)phenyl][1,2,4]triazolo[4,3-a]pyridine], the inhibition at 1 µM was 73%.
`COCC(F)(F)c1nnc2ccc(-c3ccc(Oc4ccccc4)cc3)cn12` [BHN-136, 3-(1,1-difluoro-2-methoxyethyl)-6-(4-phenoxyphenyl)[1,2,4]triazolo[4,3-a]pyridine] was tested, and the inhibition at 1 µM was 45%.
`FC(F)(F)Oc1ccc(-c2ccc3nnc(-c4ccc(OC(F)(F)F)cc4)n3n2)cc1` [BHN-118, 3,6-bis[4-(trifluoromethoxy)phenyl][1,2,4]triazolo[4,3-b]pyridazine] gave an inhibition at 1 µM of 46.3%.

Same assay, conditions: compound at 10 μM; HEK293 cells expressing hNav1.5; late INa generated with 10 μM Tefluthrin (or 50 nM ATX II); read-out: LateINa_10 uM (percent block of late INa)
Molecule `O=C(O)Cc1nnc2ccc(-c3ccc(OC(F)(F)F)cc3)cn12` [BHN-19, {6-[4-(trifluoromethoxy)phenyl][1,2,4]triazolo[4,3-a]pyridin-3-yl}acetic acid] has an inhibition at 10 µM of 35.4%.
For `CN1CCN(Cc2cc(-c3ccc4nnc(C(F)(F)F)n4c3)ccc2OC(F)(F)F)CC1` [BHN-81, 6-{3-[(4-methylpiperazin-1-yl)methyl]-4-(trifluoromethoxy)phenyl}-3-(trifluoromethyl)[1,2,4]triazolo[4,3-a]pyridine], the inhibition at 10 µM was 30.3%.
`c1ccc(Oc2ccc(-c3ccc4nncn4n3)cc2)cc1` [BHN-22, 6-(4-phenoxyphenyl)[1,2,4]triazolo[4,3-b]pyridazine] gave an inhibition at 10 µM of 59%.
For `FC(F)(F)Oc1ccc(-c2ccc3nnc(-c4ccc(OC(F)(F)F)cc4)n3c2)cc1` [BHN-55, 3,6-bis[4-(trifluoromethoxy)phenyl][1,2,4]triazolo[4,3-a]pyridine], the inhibition at 10 µM was 90.7%.
`NS(=O)(=O)c1ccc(-c2nnc3ccc(-c4ccc(OC(F)(F)F)cc4)cn23)cc1` [BHN-73, 4-{6-[4-(trifluoromethoxy)phenyl][1,2,4]triazolo[4,3-a]pyridin-3-yl}benzenesulfonamide] gave an inhibition at 10 µM of 17.5%.
Molecule `CN(C)Cc1cc(-c2ccc3nnc(C(F)(F)F)n3c2)ccc1OC(F)(F)F` [BHN-83, N,N-dimethyl-1-{2-(trifluoromethoxy)-5-[3-(trifluoromethyl)[1,2,4]triazolo[4,3-a]pyridin-6-yl]phenyl}methanamine] has an inhibition at 10 µM of 29.8%.
With `CCc1nnc2ccc(-c3ccc(Oc4ccccc4)cc3)nn12` [BHN-38, 3-ethyl-6-(4-phenoxyphenyl)[1,2,4]triazolo[4,3-b]pyridazine] the inhibition at 10 µM was 79.3%.
`Cc1cc(-c2ccc(Oc3ccccc3)cc2)cn2ncnc12` [BHN-349, 8-methyl-6-(4-phenoxyphenyl)[1,2,4]triazolo[1,5-a]pyridine] gave an inhibition at 10 µM of 65.1%.
Molecule `N#Cc1ccc(-c2nnc3ccc(-c4ccc(Oc5ccccc5)cc4)nn23)cc1` [BHN-40, 4-[6-(4-phenoxyphenyl)[1,2,4]triazolo[4,3-b]pyridazin-3-yl]benzonitrile] has an inhibition at 10 µM of 38.2%.
`Cc1cc(OC(F)(F)F)ccc1-c1ccc2nnc(-c3ccc(C#N)cc3)n2n1` [BHN-41, 4-{6-[2-methyl-4-(trifluoromethoxy)phenyl][1,2,4]triazolo[4,3-b]pyridazin-3-yl}benzonitrile] showed an inhibition at 10 µM of 59.1%.
`c1ccc(Oc2ccc(-c3ccc4nnc(-c5ccc(-c6nn[nH]n6)cc5)n4n3)cc2)cc1` [BHN-50, 6-(4-phenoxyphenyl)-3-[4-(2H-tetrazol-5-yl)phenyl][1,2,4]triazolo[4,3-b]pyridazine] was tested, and the inhibition at 10 µM was 31%.
Work on `COc1ccc(-c2ccc3nnc(-c4ccc(C#N)cc4)n3n2)cc1` [BHN-44, 4-[6-(4-methoxyphenyl)[1,2,4]triazolo[4,3-b]pyridazin-3-yl]benzonitrile] yielded an inhibition at 10 µM of 15%.
`FC(F)(F)c1nnc2ccc(-c3ccc(C4CC4)nc3)cn12` [BHN-88, 6-(6-cyclopropylpyridin-3-yl)-3-(trifluoromethyl)[1,2,4]triazolo[4,3-a]pyridine] was tested, and the inhibition at 10 µM was 36%.
`Cc1nnc2c(N)cc(-c3ccc(OC(F)(F)F)cc3)cn12` [BHN-69, 3-methyl-6-[4-(trifluoromethoxy)phenyl][1,2,4]triazolo[4,3-a]pyridin-8-amine] was tested, and the inhibition at 10 µM was 32.1%.
With `CC(C)(O)c1ccc(-c2ccc3nnc(C(F)(F)F)n3c2)cc1` [BHN-48, 2-{4-[3-(trifluoromethyl)[1,2,4]triazolo[4,3-a]pyridin-6-yl]phenyl}propan-2-ol] the inhibition at 10 µM was 18.9%.
